How the values were obtained:
Assay in all cases: Test B pre-/postemergence plant response
Format in all cases: in vivo
[1] = system: pigweed (Amaranthus retroflexus); conditions: Preemergence; for Pigweed plant response rating: 8 g ai/ha
Procedure, shortened: (§1)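 Visual scoring from 0 (no effect) to 100 (complete control) against untreated controls was done 13 to 15 days after greenhouse treatment. Chemicals were formulated in a surfactant-containing non-phytotoxic solvent and applied to soil preemergence or to 1- to 4-leaf (2-18 cm) plants postemergence.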

[2] = system: giant foxtail (Setaria faberii); conditions: Preemergence; for Foxtail, Giant plant response rating: 8 g ai/ha
Procedure, shortened: as §1

[3] = system: morningglory (Ipomoea coccinea); conditions: Preemergence; for Morningglory plant response rating: 8 g ai/ha
Procedure, shortened: as §1

[4] = system: surinam grass (Brachiaria decumbens); conditions: Preemergence; for Surinam Grass plant response rating: 8 g ai/ha
Procedure, shortened: as §1

[5] = system: johnsongrass (Sorghum halepense); conditions: Preemergence
Procedure, shortened: as §1

[6] = system: woolly cupgrass (Eriochloa villosa); conditions: Preemergence; for Cupgrass, Woolly plant response rating: 8 g ai/ha
Procedure, shortened: as §1

[7] = system: downy bromegrass (Bromus tectorum); conditions: Preemergence; for Bromegrass, Downy plant response rating: 8 g ai/ha
Procedure, shortened: as §1

[8] = system: blackgrass (Alopecurus myosuroides); conditions: Preemergence
Procedure, shortened: as §1

[9] = system: common (oilseed) sunflower (Helianthus annuus); conditions: Preemergence; for Sunflower plant response rating: 8 g ai/ha
Procedure, shortened: as §1

[10] = system: green foxtail (Setaria viridis); conditions: Preemergence; for Foxtail, Green plant response rating: 8 g ai/ha
Procedure, shortened: as §1

[11] = system: eastern black (E.B.) nightshade (Solanum ptycanthum); conditions: Preemergence; for Nightshade, E. B. plant response rating: 8 g ai/ha
Procedure, shortened: as §1

[12] = system: corn (Zea mays); conditions: Preemergence; for Corn plant response rating: 8 g ai/ha
Procedure, shortened: as §1

[13] = system: catchweed bedstraw (Galium aparine); conditions: Preemergence
Procedure, shortened: as §1

[14] = 16 g ai/ha, scale 0 to 100 (0 no effect, 100 complete control)
[15] = 31 g ai/ha, 0 to 100 scale, 0 no effect, 100 complete control
[16] = 31 g ai/ha, scale 0 to 100 (0 no effect, 100 complete control)

With `Cc1cc(-c2ccc(C(F)(F)F)cc2)nn1-c1c(O)c(C(C)C)nn(C)c1=O` [Compound 27] the “Plant response rating, Pigweed” value [1, 14] was 0, the “Plant response rating, Pigweed” value [1, 15] was 0 and the “Plant response rating, Pigweed” value ([1]; 62 g ai/ha, scale 0 to 100) was 0. The “Pigweed plant response rating” value ([1]; scale 0 to 100) was 0, the “Plant response rating, Foxtail, Giant” value [2, 14] was 0 and the “Plant response rating, Foxtail, Giant” value [2, 15] was 0. For the same molecule, the “Plant response rating, Foxtail, Giant” value ([2]; 62 g ai/ha, scale 0 to 100) was 20, the “Foxtail, Giant plant response rating” value ([2]; scale 0 to 100) was 0 and the “Plant response rating, Morningglory” value [3, 14] was 0. For the same molecule, the “Plant response rating, Morningglory” value [3, 15] was 0, the “Plant response rating, Morningglory” value ([3]; 62 g ai/ha, scale 0 to 100) was 0 and the “Morningglory plant response rating” value ([3]; scale 0 to 100) was 0. The “Plant response rating, Surinam Grass” value [4, 14] was 0, the “Plant response rating, Surinam Grass” value [4, 15] was 0 and the “Plant response rating, Surinam Grass” value ([4]; 62 g ai/ha, scale 0 to 100) was 75. The “Surinam Grass plant response rating” value ([4]; scale 0 to 100) was 0, the “Plant response rating, Johnsongrass” value [5, 14] was 40 and the “Plant response rating, Johnsongrass” value [5, 15] was 75. For the same molecule, the “Plant response rating, Johnsongrass” value ([5]; 62 g ai/ha, scale 0 to 100) was 85, the “Johnsongrass plant response rating” value ([5]; 8 g ai/ha, scale 0 to 100) was 0 and the “Plant response rating, Cupgrass, Woolly” value [6, 14] was 0. For the same molecule, the “Plant response rating, Cupgrass, Woolly” value [6, 15] was 30, the “Plant response rating, Cupgrass, Woolly” value ([6]; 62 g ai/ha, scale 0 to 100) was 55 and the “Cupgrass, Woolly plant response rating” value ([6]; scale 0 to 100) was 0. For the same molecule, the “Plant response rating, Bromegrass, Downy” value [7, 14] was 0, the “Plant response rating, Bromegrass, Downy” value [7, 15] was 50 and the “Plant response rating, Bromegrass, Downy” value ([7]; 62 g ai/ha, scale 0 to 100) was 50. The “Bromegrass, Downy plant response rating” value ([7]; scale 0 to 100) was 0, the “Plant response rating, Blackgrass” value [8, 14] was 20 and the “Plant response rating, Blackgrass” value [8, 15] was 50. The “Plant response rating, Blackgrass” value ([8]; 62 g ai/ha, scale 0 to 100) was 100, the “Plant response rating, Sunflower” value [9, 14] was 0 and the “Plant response rating, Sunflower” value [9, 15] was 0. For the same molecule, the “Plant response rating, Sunflower” value ([9]; 62 g ai/ha, scale 0 to 100) was 0, the “Sunflower plant response rating” value ([9]; scale 0 to 100) was 0 and the “Plant response rating, Foxtail, Green” value [10, 14] was 0. For the same molecule, the “Plant response rating, Foxtail, Green” value [10, 15] was 60, the “Plant response rating, Foxtail, Green” value ([10]; 62 g ai/ha, scale 0 to 100) was 85 and the “Foxtail, Green plant response rating” value ([10]; scale 0 to 100) was 0. For the same molecule, the “Plant response rating, Nightshade, E. B.” value [11, 14] was 0, the “Plant response rating, Nightshade, E. B.” value [11, 15] was 0 and the “Plant response rating, Nightshade, E. B.” value ([11]; 62 g ai/ha, scale 0 to 100) was 0. The “Nightshade, E. B. plant response rating” value ([11]; scale 0 to 100) was 0, the “Plant response rating, Corn” value [12, 14] was 0 and the “Plant response rating, Corn” value [12, 15] was 75. For the same molecule, the “Plant response rating, Corn” value ([12]; 62 g ai/ha, scale 0 to 100) was 85 and the “Corn plant response rating” value ([12]; scale 0 to 100) was 0.
In the case of `Cc1ccc(-c2ccc(Cl)cc2)cc1-c1c(O)cnn(C)c1=O` [Compound 46], the “Plant response rating, Pigweed” value [1, 14] is reported as 0, the “Plant response rating, Pigweed” value [1, 16] is reported as 60 and the “Plant response rating, Pigweed” value ([1]; 62 g ai/ha, scale 0 to 100) is reported as 100. For the same molecule, the “Pigweed plant response rating” value ([1]; scale 0 to 100) was 0, the “Plant response rating, Foxtail, Giant” value [2, 14] was 15 and the “Plant response rating, Foxtail, Giant” value [2, 15] was 95. The “Plant response rating, Foxtail, Giant” value ([2]; 62 g ai/ha, scale 0 to 100) was 100, the “Foxtail, Giant plant response rating” value ([2]; scale 0 to 100) was 0 and the “Plant response rating, Morningglory” value [3, 14] was 0. The “Plant response rating, Morningglory” value [3, 16] was 0, the “Plant response rating, Morningglory” value ([3]; 62 g ai/ha, scale 0 to 100) was 0 and the “Morningglory plant response rating” value ([3]; scale 0 to 100) was 0. For the same molecule, the “Plant response rating, Galium” value [13, 14] was 0, the “Plant response rating, Galium” value [13, 15] was 0 and the “Plant response rating, Galium” value ([13]; 62 g ai/ha, scale 0 to 100) was 0. The “Galium plant response rating” value ([13]; 8 g ai/ha, scale 0 to 100) was 0, the “Plant response rating, Surinam Grass” value [4, 14] was 0 and the “Plant response rating, Surinam Grass” value [4, 16] was 0. The “Plant response rating, Surinam Grass” value ([4]; 62 g ai/ha, 0 to 100 scale, 0 no effect, 100 complete control) was 0, the “Surinam Grass plant response rating” value ([4]; scale 0 to 100) was 0 and the “Plant response rating, Johnsongrass” value [5, 14] was 55. For the same molecule, the “Plant response rating, Johnsongrass” value [5, 15] was 85, the “Plant response rating, Johnsongrass” value ([5]; 62 g ai/ha, scale 0 to 100) was 90 and the “Plant response rating, Cupgrass, Woolly” value [6, 14] was 0. For the same molecule, the “Plant response rating, Cupgrass, Woolly” value [6, 15] was 85, the “Plant response rating, Cupgrass, Woolly” value ([6]; 62 g ai/ha, scale 0 to 100) was 98 and the “Cupgrass, Woolly plant response rating” value ([6]; scale 0 to 100) was 0. The “Plant response rating, Bromegrass, Downy” value [7, 14] was 0, the “Plant response rating, Bromegrass, Downy” value [7, 15] was 0 and the “Plant response rating, Bromegrass, Downy” value ([7]; 62 g ai/ha, scale 0 to 100) was 5. For the same molecule, the “Bromegrass, Downy plant response rating” value ([7]; scale 0 to 100) was 0, the “Plant response rating, Blackgrass” value [8, 14] was 30 and the “Plant response rating, Blackgrass” value [8, 15] was 40. For the same molecule, the “Plant response rating, Blackgrass” value ([8]; 62 g ai/ha, scale 0 to 100) was 85, the “Blackgrass plant response rating” value ([8]; 8 g ai/ha, scale 0 to 100) was 0 and the “Plant response rating, Sunflower” value [9, 14] was 0. The “Plant response rating, Sunflower” value [9, 16] was 0, the “Plant response rating, Sunflower” value ([9]; 62 g ai/ha, scale 0 to 100) was 0 and the “Sunflower plant response rating” value ([9]; scale 0 to 100) was 0. For the same molecule, the “Plant response rating, Foxtail, Green” value [10, 14] was 10, the “Plant response rating, Foxtail, Green” value [10, 15] was 80 and the “Plant response rating, Foxtail, Green” value ([10]; 62 g ai/ha, scale 0 to 100) was 100. The “Foxtail, Green plant response rating” value ([10]; scale 0 to 100) was 0, the “Plant response rating, Nightshade, E. B.” value [11, 14] was 0 and the “Plant response rating, Nightshade, E. B.” value [11, 16] was 20. For the same molecule, the “Plant response rating, Nightshade, E. B.” value ([11]; 62 g ai/ha, scale 0 to 100) was 100, the “Nightshade, E. B. plant response rating” value ([11]; scale 0 to 100) was 0 and the “Plant response rating, Corn” value [12, 14] was 0. The “Plant response rating, Corn” value [12, 15] was 0, the “Plant response rating, Corn” value ([12]; 62 g ai/ha, scale 0 to 100) was 0 and the “Corn plant response rating” value ([12]; scale 0 to 100) was 0.
